Results as given in patent US6953810B2, “Nicotinamide biaryl derivatives useful as inhibitors of PDE4 isozymes” (Pfizer Inc, priority 2001, dated 2005).
Entries after “also recorded” stand apart in the source; their conditions may differ.

Tests used:
[1] = test system: lung, BAL, airway and pleural eosinophilia; details: guinea-pig; cited from earlier work
[2] = test system: airway hyper-responsiveness (AHR); details: guinea-pig; PAF-, ozone- or ACh-induced; cited from earlier work
[3] = test system: antigen-induced bronchoconstriction; details: guinea-pig; cited from earlier work
[4] = in vivo; cited from earlier work
guinea-pig trachea = details: cited from earlier work
[5] = test system: isolated pulmonary artery rings; details: cited from earlier work
SCW-induced arthritis = details: in vivo; cited from earlier work
[6] = test system: rheumatoid arthritis patients; design: dose or concentration left out as unconfirmed; details: 35 patients; cited from earlier work
tumor cells = details: at micromolar concentrations; cited from earlier work
[7] = test system: antigen-induced lung eosinophilia; details: rat; cited from earlier work
patients = details: oral 5, 10, and 15 mg b.i.d., week 2; cited from earlier work
[8] = test system: ex vivo TNF release and lymphocyte proliferation; details: oral dose of 300 mg; cited from earlier work
rhinorrhea = details: in vivo; cited from earlier work
[9] = test system: psoriatic epidermal slices; details: psoriatic and keratomed psoriatic epidermal slices; cited from earlier work
psoriatic lesions = details: two double-blind studies; cited from earlier work
[10] = test system: lipopolysaccharide-induced mesenteric blood flow fall; details: dog, in vivo; cited from earlier work
[11] = test system: human peripheral blood mononuclear cells (HPBM); details: normal patients and subjects with atopic dermatitis; cited from earlier work
bone marrow culture = details: cited from earlier work
[12] = test system: collagen II induced arthritis; details: 3 mg/kg twice daily when arthritis was apparent; cited from earlier work
[13] = test system: experimental allergic encephalomyelitis; details: marmoset; cited from earlier work
[14] = test system: chronic relapsing experimental allergic encephalomyelitis; details: SJL mice; cited from earlier work
[15] = test system: late reactions to inhaled allergen; details: oral 15 and 30 mg, 9.5 days; cited from earlier work
[16] = test system: catalytic site (Sc) of PDE4; details: cited from earlier work

In the case of O=c1c2c(ncn2Cc2cccnc2)c2cccnc2n1-c1ccccc1 [KF19514], the “inhibition of antigen-induced lung, BAL or airway eosinophilia” value (“inhibition of antigen-induced lung” below) [1] is given as “activity”, the “inhibition of airway hyper-responsiveness (AHR)” value (from here on “inhibition … (AHR)”) [2] is given as “activity” and the “inhibition of antigen-induced bronchoconstriction” value [3] is given as “activity”.

In the case of COc1ccc(C(=O)Nc2c(Cl)cncc2Cl)cc1OC1CCCC1 [RP-73,401, piclamilast], the “inhibition of IL-5 induced pleural eosinophila” value [1] is listed as “active”, the “inhibition of antigen-induced lung” value [1] is listed as “active” and the “inhibition … (AHR)” value [2] is listed as “active”. For the same molecule, the “emesis, nausea, vomiting” value [4] was “elicit emesis”.

In the case of CC1CC1c1nc(NC2CC2)nc(N2CCOCC2)n1 (stereo not drawn) [Formula (0.0.57)], the “relaxation in a guinea-pig trachea model” value (guinea-pig trachea) is given as “potent relaxant agents”.

In the case of COc1ccc(C2CNC(=O)NC2)cc1O[C@H]1C[C@@H]2CC[C@H]1C2 [CP-80,633, atizoram], the “emesis, nausea, vomiting” value [4] is given as “elicit emesis”.

For O=c1c2[nH]cnc2c2cccnc2n1-c1ccccc1 [KF17625], the “inhibition of antigen-induced lung” value [1] is listed as “activity”, the “inhibition … (AHR)” value [2] is listed as “activity” and the “inhibition of antigen-induced bronchoconstriction” value [3] is listed as “activity”.

Molecule O=C(O)c1cccc(-c2ccc(CNC(=O)c3cccnc3Oc3ccc(F)cc3)cc2)c1 [Example 1, 4′-[[[2-[4-Fluorophenoxyl]-pyridine-3-carbonyl]-amino]-methyl]-biphenyl-3-carboxylic acid] has a melting point of 184 to 186 °C.

In the case of O=S1(=O)CCN(c2nc(NC3CC3)nc(C3CC3)n2)C1 [Formula (0.0.56)], the “relaxation in a guinea-pig trachea model” value (guinea-pig trachea) is given as “potent relaxant agents”.

In the case of Cc1[nH]c(=O)c(C#N)cc1-c1ccncc1 [milrinone], the “effect on relaxant activities of isoproterenol and forskolin” value [5] is listed as “same effect”.

For COc1ccc(C(=O)Nc2c(Cl)cncc2Cl)cc1OC1CCCC1 [RP73401], the “disease in SCW-induced arthritis (joint destruction, synovitis, fibrosis)” value (SCW-induced arthritis) is given as “significant amelioration of disease” and the “clinical improvement with reduction in C-reactive protein and IL-6 serum levels” value [6] is given as “positive trend towards clinical improvement”.

For O=C(O)c1cccc(-c2ccc(CNC(=O)c3cccnc3Oc3ccc4c(c3)OCO4)c(F)c2)c1 [Example 3], the melting point was 190 to 192 °C.

In the case of Clc1nc2c(N3CCCC3)nc(N3CCNCC3)nc2nc1NCc1ccccc1 [Formula (0.0.55)], the “inhibition of growth of tumor cells” value (tumor cells) is given as “inhibit the growth of tumor cells”.

For Nc1nc2c([nH]1)c(=O)n(CC1CC1)c(=O)n2CC1CC1 [BRL-61,063, cipamfylline], the “emesis, nausea, vomiting” value [4] is given as “adverse events of nausea and vomiting”.

In the case of Cc1cc2c3c(c1)C(c1ccccc1)=N[C@@H](NC(=O)c1ccncc1)C(=O)N3CC2 [CI-1018], the “oral potency ED50” value [7] is listed as 5 mg/kg.

In the case of COc1ccc([C@]2(C#N)CC[C@@H](C(=O)O)CC2)cc1OC1CCCC1 [SB-207,499], the “trough FEV1 versus placebo” value (patients) is listed as “significant increases”.

In the case of CCNc1ncn(Cc2ccc(OC)c(OC3CCCC3)c2)c2nc(C(C)C)nc1-2 [Example V-11294A], the “reduction of TNF levels and lymphocyte proliferation” value [8] is given as “effective”.

In the case of CCCC1C(=O)C2=C(C(CC)=NC2C)c2nc(OC)ccc21 [Example D-22888], the “rhinorrhea in the antigen-challenged pig” value (rhinorrhea) is given as “inhibit rhinorrhea”.

In the case of COc1ccc(CC2CNC(=O)N2)cc1OC1CCCC1 (stereo not drawn) [Ro 20-1724], the “elevation of cAMP concentrations over controls” value [9] is listed as “very marked elevation” and the “psoriatic lesions versus vehicle” value (psoriatic lesions) is listed as “improve psoriatic lesions”.

In the case of CCCCn1c(=O)c2c(ncn2CC(C)=O)n(CCCC)c1=O [denbufylline], the “potency relative to pentoxifylline in inhibiting lipopolysaccharide-induced mesenteric blood flow fall” value [10] is given as 100 fold, the “inhibition of proliferation of HPBM” value [11] is given as “concentration-related inhibition” and the “mineralized nodules in bone marrow culture” value (bone marrow culture) is given as “increase in the number of mineralized nodules”.

For COc1ccc(C2CNC(=O)C2)cc1OC1CCCC1 (stereo not drawn) [rolipram], the development of disease [12] is listed as “progression of severity was halted”, the “inhibition of proliferation of HPBM” value [11] is listed as “concentration-related inhibition” and the “clinical signs of EAE” value [13] is listed as “suppress the appearance of clinical signs”. For the same molecule, the “clinical signs and pathological changes of chronic relapsing EAE” value [14] was “ameliorates clinical signs and pathological changes” and the “effect on relaxant activities of isoproterenol and forskolin” value [5] was “potentiates the relaxant activities of isoproterenol and forskolin”.

For O=c1c2cccnc2n(-c2cccc([N+](=O)[O-])c2)c(=O)n1Cc1ccncc1 [RS-23,544], the “emesis, nausea, vomiting” value [4] is listed as “elicit emesis”.

N#Cc1cccc(Oc2ncccc2C(=O)NCc2ccc(-c3cccc(C(=O)O)c3)cc2F)c1 [Example 4, 4′-[[[2-[3-Cyano-phenoxy]-pyridine-3-carbonyl]-amino]-methyl]-biphenyl-3′-fluoro-biphenyl-3-carboxylic acid] gave a melting point of 200 to 202 °C.

For COc1ccc([C@H](Cc2ccncc2)c2ccccc2)cc1OC1CCCC1 [CDP840], the “late reactions / late-phase response to inhaled allergen” value [15] is given as “suppression; also recorded: significant inhibition”, the “emesis, nausea, vomiting” value [4] is given as “without any adverse events of nausea or headache” and the “potency at the Sc compared with SB-207,499” value [16] is given as “significantly higher potency”.
